Measured values: PMC8760230, “Translational Development of a Zr-89-Labeled Inhibitor of Prostate-specific Membrane Antigen for PET Imaging in Prostate Cancer” (Molecular Imaging and Biology, 2021)
“Also recorded” adds a separate entry of the source. Read-outs that look alike come from different tables or passages of the source.

What was measured:
[1] = test system: LNCaP tumor xenograft; assay: Small-animal PET in mice bearing an LNCaP tumor xenograft, with and without blocking by 2-PMPA; settings: 2-PMPA 23 mg/kg, n=3 per group
[2] = test system: LNCaP tumor xenografts
[3] = test system: LNCaP cells; assay: Internalization in LNCaP cells; format: cell-based; settings: n=3
Experimental: (§1) The cell binding determined in these experiments is the sum of specific and nonspecific cell binding. To determine the values for nonspecific cell binding and internalization, all experiments were additionally performed in the presence of 2-PMPA.
(§2) The plates were incubated for 1 h; after which, 0.75 pmol of the radiotracer to be examined was added to 1 ml of fresh medium. The cells were incubated for 30 min, 1, 2, 3, and 5 h. At each time point, the supernatant was removed and the cells washed with 1 ml of PBS. To dissociate the receptor-bound radioligand, the cells were washed twice with 1 ml of a 0.1 M glycine buffer solution at pH 2.8 for 5 min. The 0.1 M glycine–HCl buffer dissociated all the surface-bound complexes. The cells were then washed with 1 ml of PBS, and the internalized fraction was determined by solubilizing the cells with 1 ml of 1 M NaOH and incubating them for 10 min at room temperature. The radioactivity collected from the culture medium, 0.1 M glycine (surface-bound), and 1 M NaOH (internalized fraction) was measured in a gamma counter and decay-corrected. Cell binding was calculated from the surface-bound (0.1 M glycine) and the internalized fraction (1 M NaOH). The internalized fraction was expressed as a percentage of cell binding (internalization to cell-bound radioactivity ratio). All cell uptake experiments were run in triplicate.

[4] = molecular target: T1, PSMA (Homo sapiens, UniProt Q04609); assay: Equilibrium dissociation constant Kd / Bmax, saturation binding on PSMA-positive LNCaP cells
T1 construct: host or cells: LNCaP cells
Experimental: The equilibrium dissociation constant describing the interaction of the radiolabeled ligands with the PSMA binding sites was determined in PSMA-positive LNCaP cell lines (Cell Line Service, Eppelheim, Germany). LNCaP cells were seeded at a density of 10^6 cells/well on a 6-well plate (Corning, ME, USA) and incubated under 5% CO2 at 37 °C for 48 h with medium (minimum essential medium Eagle supplemented with 2 mM L-glutamine, 0.1 mM non-essential amino acids (NEAA), 1.0 mM sodium pyruvate, 10% fetal bovine serum, 100 U/ml penicillin, and 100 µg/ml streptomycin) (Lonza, Verviers, Belgium) in a humidified incubator (Thermo Heracell 150 CO2-Incubator, MA, USA). To determine the nonspecific binding, the medium was removed from selected wells, and 1 ml of a solution of 0.1 mM of 2-(phosphonomethyl)-pentanedioic acid (2-PMPA) in fresh medium was added. […] The plates were then incubated under 5% CO2, at 37 °C for 1 h. After that, the medium was removed and the cells incubated under the same incubation conditions for 3 h with different concentrations (0.25 nM, 2.5 nM, 5 nM, 10 nM, 25 nM, 50 nM, and 75 nM) of the radiotracer under investigation in 1 ml fresh medium.
After 3 h, the cells were washed three times with 1 ml PBS, and the cells were finally lysed by adding 1 ml of 1 M NaOH and incubating them for 10 min at room temperature. All samples were measured with a gamma counter (Nuklear Medizintechnik Dresden Isomed 100, Dresden, Germany) and were decay-corrected. The equilibrium dissociation constant (Kd) and the maximum density of receptors (Bmax) were calculated by non-linear regression using GraphPad Prism 8.0.2 (GraphPad Software, San Diego, USA).

[5] = test system: LNCaP cells; assay: Cellular uptake (specific cell binding) in LNCaP cells; format: cell-based; settings: n=3
Experimental: as §1, §2

[6] = test system: prostate cancer relapse; assay: First-in-human PET/CT scan in a patient with biochemical recurrence of prostate cancer; settings: 2 h p.i., 343 MBq
Experimental: The patient had given their written informed consent for PET imaging and the scientific evaluation of their data. All procedures were performed in accordance with the Institutional Review Board and the regulations of the regional authorities in Cologne. The kidney dose was estimated on the basis of two PET scans. The following assumptions were made for the estimation: Between time 0 (injection) and the first measuring point, the time-activity-curve follows a constant progression. All measuring points were integrated numerically using trapezoidal approximation. From the last measuring point to infinity, a mono-exponential function was fitted and integrated. As the effective half-life could not be accurately determined from two measurement points, the physical half-life of Zr-89 was used instead.

T1 sequence (Q04609 whole entry): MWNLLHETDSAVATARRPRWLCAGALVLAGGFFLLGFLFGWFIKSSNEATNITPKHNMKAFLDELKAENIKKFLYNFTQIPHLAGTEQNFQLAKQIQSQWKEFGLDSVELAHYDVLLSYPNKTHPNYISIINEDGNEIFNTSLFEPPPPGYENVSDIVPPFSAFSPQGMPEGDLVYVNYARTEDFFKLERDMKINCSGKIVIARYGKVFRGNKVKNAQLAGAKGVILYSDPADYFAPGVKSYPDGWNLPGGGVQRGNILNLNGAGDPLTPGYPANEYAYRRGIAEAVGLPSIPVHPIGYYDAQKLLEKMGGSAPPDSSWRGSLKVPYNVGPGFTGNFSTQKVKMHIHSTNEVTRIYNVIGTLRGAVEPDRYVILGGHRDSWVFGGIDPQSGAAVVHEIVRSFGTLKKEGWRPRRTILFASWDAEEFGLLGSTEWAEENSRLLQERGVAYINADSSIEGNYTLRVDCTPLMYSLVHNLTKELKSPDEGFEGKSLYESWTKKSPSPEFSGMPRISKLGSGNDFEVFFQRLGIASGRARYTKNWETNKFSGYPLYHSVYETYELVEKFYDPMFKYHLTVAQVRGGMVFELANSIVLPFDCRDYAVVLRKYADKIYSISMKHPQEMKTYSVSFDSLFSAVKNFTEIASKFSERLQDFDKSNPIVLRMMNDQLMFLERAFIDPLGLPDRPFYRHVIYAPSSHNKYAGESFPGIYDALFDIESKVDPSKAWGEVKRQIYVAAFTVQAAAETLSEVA

O=C(O)CCC(CP(=O)(O)O)C(=O)O (stereo not drawn) [2-PMPA, 2-(phosphonomethyl)-pentanedioic acid]
Effect of blocking on accumulation of [^89Zr]Zr-PSMA-DFO radioactivity in the liver ([1]; 1 h, 21 h and 48 h): significantly increased; also recorded: radioactivity accumulated in the liver
Effect of blocking on accumulation of [^89Zr]Zr-PSMA-DFO radioactivity in the kidneys ([1]; significant after 1 h): significantly reduced
Effect of blocking on tumor accumulation of [^89Zr]Zr-PSMA-DFO ([1]; significant after 1 h): strongly reduced; also recorded: markedly reduced

COc1nc([18F])ccc1C(=O)NCCCCC(NC(=O)NC(CCC(=O)O)C(=O)O)C(=O)O (stereo not drawn) [[^18F]F-JK-PSMA-7]
Tumor/blood ratio ([2]; 2 h p.i., LNCaP xenograft mice): 142 ± 24
Tumor/kidneys ratio ([2]; 2 h p.i., LNCaP xenograft mice): 0.74 ± 0.08
Tumor/liver ratio ([2]; 2 h p.i., LNCaP xenograft mice): 4.7 ± 1.2
Tumor/muscle ratio ([2]; 2 h p.i., LNCaP xenograft mice): 282 ± 71
Biodistribution Blood ([2]; 2 h p.i., i.v. 30 pmol, n=5): 0.15 ± 0.04 %ID/g
Biodistribution Bone ([2]; 2 h p.i., i.v. 30 pmol, n=5): 0.18 ± 0.03 %ID/g
Biodistribution Heart ([2]; 2 h p.i., i.v. 30 pmol, n=5): 0.12 ± 0.02 %ID/g
Biodistribution Intestine ([2]; 2 h p.i., i.v. 30 pmol, n=5): 0.89 ± 0.18 %ID/g
Biodistribution Kidneys ([2]; 2 h p.i., i.v. 30 pmol, n=5): 27.2 ± 2.6 %ID/g
Biodistribution LNCAP-tumor ([2]; 2 h p.i., i.v. 30 pmol, n=5): 20.2 ± 2.4 %ID/g
Biodistribution Lung ([2]; 2 h p.i., i.v. 30 pmol, n=5): 0.18 ± 0.01 %ID/g
Biodistribution Muscle ([2]; 2 h p.i., i.v. 30 pmol, n=5): 0.07 ± 0.02 %ID/g
Biodistribution Prostate ([2]; 2 h p.i., i.v. 30 pmol, n=5): 0.22 ± 0.03 %ID/g
Biodistribution Spleen ([2]; 2 h p.i., i.v. 30 pmol, n=5): 2.15 ± 0.45 %ID/g
Biodistribution Thyroid ([2]; 2 h p.i., i.v. 30 pmol, n=5): 0.19 ± 0.02 %ID/g
Tumor/liver ratio ([2]; 4 h p.i., LNCaP xenograft mice): 5.7 ± 0.7
Biodistribution Blood ([2]; 4 h p.i., i.v. 30 pmol, n=5): 0.12 ± 0.03 %ID/g
Biodistribution Bone ([2]; 4 h p.i., i.v. 30 pmol, n=5): 0.20 ± 0.03 %ID/g
Biodistribution Heart ([2]; 4 h p.i., i.v. 30 pmol, n=5): 0.10 ± 0.02 %ID/g
Biodistribution Intestine ([2]; 4 h p.i., i.v. 30 pmol, n=5): 1.53 ± 0.31 %ID/g
Biodistribution Kidneys ([2]; 4 h p.i., i.v. 30 pmol, n=5): 26.0 ± 3.5 %ID/g
Biodistribution LNCAP-tumor ([2]; 4 h p.i., i.v. 30 pmol, n=5): 21.3 ± 1.5 %ID/g
Biodistribution Liver ([2]; 4 h p.i., i.v. 30 pmol, n=5): 3.75 ± 0.50 %ID/g
Biodistribution Lung ([2]; 4 h p.i., i.v. 30 pmol, n=5): 0.18 ± 0.04 %ID/g
Biodistribution Muscle ([2]; 4 h p.i., i.v. 30 pmol, n=5): 0.19 ± 0.03 %ID/g
Biodistribution Prostate ([2]; 4 h p.i., i.v. 30 pmol, n=5): 0.60 ± 0.16 %ID/g
Biodistribution Spleen ([2]; 4 h p.i., i.v. 30 pmol, n=5): 1.57 ± 0.22 %ID/g
Biodistribution Thyroid ([2]; 4 h p.i., i.v. 30 pmol, n=5): 0.20 ± 0.02 %ID/g
Specific internalized activity as percentage of specific cell-bound activity ([3]; 0.5 h): 19.6±1.3 %
Specific internalized activity as percentage of specific cell-bound activity ([3]; 1 h): 33.9±1.6 %
Specific internalized activity as percentage of specific cell-bound activity ([3]; 2 h): 44.3±2.5%
Specific internalized activity as percentage of specific cell-bound activity ([3]; 3 h): 46.0±2.2%
Specific internalized activity as percentage of specific cell-bound activity ([3]; 5 h): 48.6±0.9 %
Kd ([4]; 3 h incubation, 0.25-75 nM, nonspecific binding with 2-PMPA): 5.07 ± 0.45 nM
Bmax (maximum achievable concentration on 10^6 tumor cells) ([4]; Scatchard plots): 2702 ± 61 fmol/10^6 cells
Specific binding in LNCaP cells as percentage of total activity ([5]; 0.5 h): 23.8±0.6 %
Specific binding in LNCaP cells as percentage of total activity ([5]; 1 h): 32.6±0.4 %
Specific binding in LNCaP cells as percentage of total activity ([5]; 2 h): 38.8±1.3 %
Specific binding in LNCaP cells as percentage of total activity ([5]; 3 h): 45.2±1.9 %
Specific binding in LNCaP cells as percentage of total activity ([5]; 5 h): 45.8±0.4 %
SUVmax left prostate lobe [6]: 4.63
SUVmax right prostate lobe [6]: 5.37
